Drawing on ChEMBL document CHEMBL5620414, “Discovery of YK-029A, a novel mutant EGFR inhibitor targeting both T790 M and exon 20 insertion mutations, as a treatment for NSCLC” (Eur J Med Chem, 2023), this text covers IC50 and GI50 for eight compounds.

The target of assay [1] is Epidermal growth factor receptor (Homo sapiens, UniProt P00533, L858R/T790M). The experiment in a line: Inhibition of GST-tagged recombinant human EGFR T790M/L858R mutant (668 to 1210 residues) expressed in Insect cells incubated for 60 mins in presence of ATP by biochemical enzymatic assay. More on the design: species or system Insect cell.
Assay [2] concerns the target Epidermal growth factor receptor (Homo sapiens, UniProt P00533). The experiment in a line: Inhibition of wildtype EGFR (unknown origin) incubated for 60 mins in presence of ATP by biochemical enzymatic assay.
Assay [3] has as its system A-431. The experiment in a line: Antiproliferative activity against human A-431 cells harboring wildtype EGFR assessed as cell growth inhibition incubated for 72 hrs by CellTiter Glo assay. It is filed as functional.
Assay [4] relates to NCI-H1975. The assay can be described thus: Antiproliferative activity against human NCI-H1975 cells harboring EGFR L858R/T790M mutant assessed as cell growth inhibition incubated for 72 hrs by CellTiter Glo assay. The following applies: Homo sapiens, NCI-H1975. It is filed as functional.
In assay [5] the test system is HCC827. The assay can be described thus: Antiproliferative activity against human HCC827 cells harboring EGFR del19 mutant assessed as cell growth inhibition incubated for 72 hrs by CellTiter Glo assay. It is filed as functional. The following applies: Homo sapiens, HCC827.
Assay [6] relates to PC-9. The assay can be described thus: Antiproliferative activity against human PC-9 cells harboring EGFR del19 mutant assessed as cell growth inhibition incubated for 72 hrs by CellTiter Glo assay. It is filed as functional. The following applies: Homo sapiens, PC-9.

Chain of Epidermal growth factor receptor (Homo sapiens, UniProt P00533) (P00533 whole entry): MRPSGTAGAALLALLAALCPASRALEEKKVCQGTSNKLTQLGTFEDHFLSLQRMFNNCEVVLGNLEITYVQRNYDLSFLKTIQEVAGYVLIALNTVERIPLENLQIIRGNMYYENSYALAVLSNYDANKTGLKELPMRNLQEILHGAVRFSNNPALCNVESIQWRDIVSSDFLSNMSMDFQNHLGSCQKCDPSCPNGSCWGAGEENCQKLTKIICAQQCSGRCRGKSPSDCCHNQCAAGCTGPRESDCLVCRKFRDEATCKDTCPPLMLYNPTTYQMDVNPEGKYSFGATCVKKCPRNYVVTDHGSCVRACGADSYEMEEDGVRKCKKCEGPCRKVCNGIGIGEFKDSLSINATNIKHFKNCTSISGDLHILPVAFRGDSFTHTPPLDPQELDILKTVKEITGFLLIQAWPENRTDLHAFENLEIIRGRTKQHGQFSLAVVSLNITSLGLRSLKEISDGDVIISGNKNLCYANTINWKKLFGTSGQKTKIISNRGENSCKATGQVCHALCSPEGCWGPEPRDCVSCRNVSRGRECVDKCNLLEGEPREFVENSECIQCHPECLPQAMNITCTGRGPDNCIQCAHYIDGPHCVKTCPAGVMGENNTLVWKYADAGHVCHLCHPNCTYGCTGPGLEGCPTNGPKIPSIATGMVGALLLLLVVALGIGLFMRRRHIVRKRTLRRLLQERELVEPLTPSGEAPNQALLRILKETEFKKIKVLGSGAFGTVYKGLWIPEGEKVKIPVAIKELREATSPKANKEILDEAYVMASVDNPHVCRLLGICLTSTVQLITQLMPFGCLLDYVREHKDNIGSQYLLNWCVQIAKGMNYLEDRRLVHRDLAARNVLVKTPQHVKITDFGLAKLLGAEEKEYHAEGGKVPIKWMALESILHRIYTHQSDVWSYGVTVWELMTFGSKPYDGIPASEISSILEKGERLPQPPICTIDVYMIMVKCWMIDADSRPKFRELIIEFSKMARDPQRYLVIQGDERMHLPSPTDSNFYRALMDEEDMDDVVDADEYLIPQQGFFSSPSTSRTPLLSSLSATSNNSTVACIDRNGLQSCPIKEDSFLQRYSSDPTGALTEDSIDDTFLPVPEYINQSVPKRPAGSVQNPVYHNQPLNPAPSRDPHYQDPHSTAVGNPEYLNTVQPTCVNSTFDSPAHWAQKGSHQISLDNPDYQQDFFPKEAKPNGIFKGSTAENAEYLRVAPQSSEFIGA

Regarding `C=CC(=O)Nc1cc(Nc2nccc(-c3ncn4c(C)cccc34)n2)c(OC)cc1N(C)CCN(C)C`, the half-maximal inhibitory concentration (IC50) amounted to 22.4 nM in assay [1] and 963 nM in assay [2].
For `C=CC(=O)Nc1cc(Nc2nccc(-c3cnc4c(Cl)cccn34)n2)c(OC)cc1N(C)CCN(C)C`, the 50% growth inhibitory concentration (GI50) in assay [3] amounted to 495 nM; in assay [4], 103 nM; in assay [5], 5.6 nM; in assay [6], 7.3 nM.
Consider `COc1cc(N(C)CCN(C)C)c(NC(=O)/C=C/CN(C)C)cc1Nc1nccc(-c2ncc3c(C)cccn23)n1`, for which the IC50 in assay [1] came to 1.27 nM; in assay [2], 50.2 nM.
Consider `COc1cc(N(C)CCN(C)C)c(NC(=O)/C=C/CN(C)C)cc1Nc1nccc(-c2cnc3c(C)cccn23)n1`, for which the IC50 in assay [1] is 1.15 nM; in assay [2], 46.8 nM.
The like results for `C=CC(=O)Nc1cc(Nc2nccc(-c3cnc4c(OC)cccn34)n2)c(OC)cc1N(C)CCN(C)C` were, in that order, 1.65 nM and 16.3 nM.
With `CC#CC(=O)Nc1cc(Nc2nccc(-c3cnc4c(C)cccn34)n2)c(OC)cc1N(C)CCN(C)C`, the IC50 in assay [1] was 0.93 nM; in assay [2] it was 64.7 nM.
For `CC#CC(=O)Nc1cc(Nc2nccc(-c3ncc4c(C)cccn34)n2)c(OC)cc1N(C)CCN(C)C` the same measures were 1.38 nM and 49.1 nM.
For `C=CC(=O)Nc1cc(Nc2nccc(-c3ccc4c(C)nccn34)n2)c(OC)cc1N(C)CCN(C)C` the same measures were 1.52 nM and 26 nM.
